Results on 8 compounds are retold here after US5968823A, “Glycine transporter-transfected avian cells and uses thereof” (Allelix Neuroscience Inc., priority 1998, dated 1999).

Where two headings read alike, the source gives them in different places.

One assay deals with T1, GlyT-1c (Homo sapiens, UniProt P48067).
T1 construct: expressed in transfected cells; host or cells: QT-6 quail fibroblast cells (ATCC CRL-1708), transient transfection
T1 sequence (P48067 1-706): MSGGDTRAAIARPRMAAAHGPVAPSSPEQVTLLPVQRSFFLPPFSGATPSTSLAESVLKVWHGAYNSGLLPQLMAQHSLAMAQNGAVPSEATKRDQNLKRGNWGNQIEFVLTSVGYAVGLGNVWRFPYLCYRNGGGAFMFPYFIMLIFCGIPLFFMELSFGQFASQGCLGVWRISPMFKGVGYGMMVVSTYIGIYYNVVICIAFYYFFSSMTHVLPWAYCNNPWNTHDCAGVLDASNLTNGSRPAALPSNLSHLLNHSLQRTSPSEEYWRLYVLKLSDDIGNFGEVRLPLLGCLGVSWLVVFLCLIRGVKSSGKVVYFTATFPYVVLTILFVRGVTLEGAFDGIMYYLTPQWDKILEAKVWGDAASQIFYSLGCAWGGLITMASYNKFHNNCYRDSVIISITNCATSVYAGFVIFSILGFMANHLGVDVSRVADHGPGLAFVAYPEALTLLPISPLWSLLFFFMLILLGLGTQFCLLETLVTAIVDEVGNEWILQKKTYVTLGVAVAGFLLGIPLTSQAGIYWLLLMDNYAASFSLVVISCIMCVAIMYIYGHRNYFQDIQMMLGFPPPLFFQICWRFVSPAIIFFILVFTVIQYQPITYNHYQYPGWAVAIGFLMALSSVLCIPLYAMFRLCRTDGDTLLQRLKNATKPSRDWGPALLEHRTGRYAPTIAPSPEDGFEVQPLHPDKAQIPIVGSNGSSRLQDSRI
Briefly: Inhibition of [3H]glycine uptake in QT-6 cells transiently transfected with GlyT-1c. The format is cell-based. As to conditions: for selectivity GlyT-1c relative to GlyT-2: comparison of pIC50 at GlyT-1c and GlyT-2 in transfected QT-6 cells. The protocol:
(§1) This example sets forth methods and materials used for growing and transfecting QT-6 cells.
The human GlyT-1c (hGlyT-1c) clone used contains the sequence of hGlyT-1c [SEQ ID NO:3] from nucleotide position 213 to 2336 cloned into the pRc/CMV vector (Invitrogen) as a Hind III-Xba I fragment as described in Kim et al., supra. The Hind III-Xba fragment of hGlyT-1c from this clone was then subcloned into the pRc/RSV vector. Transfection experiments were performed with GlyT-1c in both the pRc/RSV and pRc/CMV expression vectors.
(§2) The following four day procedure for the tranfections was used:
(§3) On day 1, QT-6 cells were plated at a density of 1×10^6 cells in 10 ml of complete QT-6 medium in 100 mm dishes.
(§4) On day 2, the medium was aspirated and the cells were washed with 10 ml of PBS followed by 10 ml of TBS. The TBS was aspirated, then 1 ml of the DEAE/DNA mix was added to the plate. The plate was swirled in the hood every 5 minutes. After 30 minutes, 8 ml of 80 μM chloroquine in QT-6 medium was added and the culture was incubated for 2.5 hours at 37° C. and 5% CO2. The medium was then aspirated and the cells were washed two times with complete QT-6 medium, then […] complete QT-6 medium was added and the cells were returned to the incubator.
(§5) On day 3, the cells were removed with trypsin/EDTA as described above, and plated into the wells of 96-well assay plates at approximately 2×10^5 cells/well.
(§6) On day 4, glycine transport was assayed as described in Example 2.
(§7) This example illustrates a method for the measurement of glycine uptake by transfected cultured cells.
(§8) Transient GlyT-transfected cells or control ("mock") cells grown in accordance with Example 1 were washed three times with HEPES buffered saline (HBS). The mock cells were treated precisely as the GlyT-transfected cells except that the transfection procedure omitted any cDNA. The cells were incubated 10 minutes at 37° C., after which a solution was added containing 50 nM [^3 H] glycine (17.5 Ci/mmol) and either (a) no potential competitor, (b) 10 mM nonradioactive glycine or (c) a concentration of a candidate drug. […] The cells were then incubated another 20 minutes at 37° C., after which the cells were aspirated and washed three times with ice-cold HBS. The cells were harvested, scintillant was added to the cells, the cells were shaken for 30 minutes, and the radioactivity in the cells was counted using a scintillation counter. Data were compared between the cells contacted or not contacted by a candidate agent, and between cells having GlyT-1 activity versus cells having GlyT-2 activity, depending on the assay being conducted.

The target of another assay is T2, GlyT-2 (Rattus norvegicus, UniProt P58295).
T2 construct: expressed in transfected cells; host or cells: QT-6 quail fibroblast cells (ATCC CRL-1708), transient transfection
T2 sequence (P58295 1-799): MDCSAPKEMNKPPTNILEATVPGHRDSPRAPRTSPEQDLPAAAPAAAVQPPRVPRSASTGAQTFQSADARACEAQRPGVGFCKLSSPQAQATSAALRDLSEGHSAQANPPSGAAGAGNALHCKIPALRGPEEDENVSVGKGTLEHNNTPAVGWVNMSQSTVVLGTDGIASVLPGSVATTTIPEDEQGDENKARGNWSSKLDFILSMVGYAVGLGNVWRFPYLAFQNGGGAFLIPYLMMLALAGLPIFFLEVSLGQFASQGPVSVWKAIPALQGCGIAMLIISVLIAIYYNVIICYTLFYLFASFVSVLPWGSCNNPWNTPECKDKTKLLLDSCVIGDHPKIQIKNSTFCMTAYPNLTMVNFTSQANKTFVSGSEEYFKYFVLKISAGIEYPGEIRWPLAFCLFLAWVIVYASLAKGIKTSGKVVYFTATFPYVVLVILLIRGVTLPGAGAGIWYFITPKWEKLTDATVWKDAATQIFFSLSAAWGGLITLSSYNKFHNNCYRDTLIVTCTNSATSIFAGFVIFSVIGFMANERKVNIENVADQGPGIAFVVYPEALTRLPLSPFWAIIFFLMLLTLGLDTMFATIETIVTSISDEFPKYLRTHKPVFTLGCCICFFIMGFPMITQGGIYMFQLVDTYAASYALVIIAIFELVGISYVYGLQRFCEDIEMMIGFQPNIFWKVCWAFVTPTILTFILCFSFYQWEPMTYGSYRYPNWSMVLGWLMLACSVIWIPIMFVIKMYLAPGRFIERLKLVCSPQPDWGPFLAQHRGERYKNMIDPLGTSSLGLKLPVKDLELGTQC
In words: Inhibition of [3H]glycine uptake in QT-6 cells transiently transfected with GlyT-2. It counts as cell-based. The protocol:
as §1, §2, §3, §4, §5, §6, §7, §8

Assay [1] has as its target glycine site on the NMDA receptor. In words: [3H]MK-801 binding test operated to identify antagonists of the NMDA-glycine site. As to conditions: rat cortex/hippocampus membranes; glutamate 10 μM, glycine 200 nM, 2.5 nM [3H]MK-801, 1 hour room temperature; FIG. 2A; read-out: concentration of antagonist resulting in about a 50% effect on [3H]MK-801 binding. The protocol: Sterner and Calligaro, Soc. Neurosci.
The membrane preparation included the following steps:
1. Sacrifice and decapitate four rats; remove cortices and hippocampi.
3. Centrifuge tissue at 1000×g, 10 minutes. Save supernatant.
4. […] Discard the supernatant.
5. […] Stir the suspension on ice for one hour.
6. […] Leave on ice for 20 minutes.
The final volume of the assay was 200 μl.

Another assay concerns NMDA receptor. In words: Calcium flux (45Ca++ accumulation) in primary neuronal cortical cell cultures. Conditions: L-689,560 50 μM with NMDA 500 μM; 10 minutes room temperature; FIG. 3. The format is cell-based, rat. The protocol:
A functional ion-flux assay used to measure the effect of compounds identified by the present invention relates to the ability to enhance or inhibit calcium flux through the NMDA receptor. This test is performed on suitable cell cultures that have membrane-bound NMDA receptors and glycine transporters. Such cells include neuronal cells generally, including those of the central nervous system, including brain, and cell lines derived therefrom, and any other cell that has been induced or transfected to express NMDA receptors. Calcium used in such a test is commonly the ^45 Ca isotope, although other calcium measuring techniques can be used as well, such as calcium-associated fluorescence and the like. However the calcium is monitored, calcium flux is enhanced or inhibited as a result of the discrete addition of a compound of the present invention. An advantage of this system is that it allows one to monitor the net effect on NMDA receptor function of a compound that interacts with the glycine site on the NMDA receptor and the glycine transporter.
This example illustrates a protocol for measuring calcium flux in primary neuronal cells, which is an indication of NMDA receptor activation. […]
The tissue was chopped with a scalpel and then triturated with a glass pipet that had been fire polished. […] Cells were counted in a suitable counting chamber. […]
On the technique in general: A change in cytosolic calcium serves as a functional read-out for many receptors and channels.

Assay [2] has as its target glycine site on the NMDA receptor. As to conditions: read-out: concentration of agonist resulting in about a 50% effect on [3H]MK-801 binding; rat cortex/hippocampus membranes; glutamate 10 μM, 2.5 nM [3H]MK-801, 1 hour room temperature; FIG. 2B.
Method: In particular, compounds having agonist activity in this assay enhance MK-801 binding; conversely, compounds having antagonist activity inhibit MK-801 binding.
Preparation of membranes for the binding test required application of a series of standard methods. Unless otherwise specified, tissues and homogenates were kept on ice and centrifugations were conducted at 4° C. Homogenizations were conducted with an effort to minimize resulting rise in tissue/homogenate temperature. The membrane preparation included the following steps:
Homogenize tissue in twenty volumes of 0.32 M sucrose/5 mM Tris-Acetate (pH 7.4) with 20 strokes of a glass/teflon homogenizer.
Centrifuge tissue at 1000×g, 10 minutes. Save supernatant. Resuspend pellet in small volume of buffer and homogenize again. Centrifuge the homogenized pellet and combine the supernatant with the previous supernatant.
Centrifuge the combined supernatants at 40,000×g, for 30 minutes. Discard the supernatant. […]
The assay was started by the addition of 2.5 nM [^3 H]MK-801 (23.9 Ci/mmol), which binds to the ion channel associated with NMDA receptors. […] Bound radioactivity was separated from free by filtration, using a TOMTEC harvester. Antagonist activity was indicated by decreasing radioactivity associated with the NMDA receptor with increasing concentration of the tested ligand.
[3] abbreviates: QT-6 cells transfected with GlyT-1c, 50 nM [3H]glycine, 20 min at 37° C, read-out: Effect Via GlyT-1c, pIC50 (converted).
[4] abbreviates: QT-6 cells transfected with GlyT-2, 50 nM [3H]glycine, 20 min at 37° C, read-out: Effect Via GlyT-2, pIC50 (converted).

Take `Clc1ccc(C(c2ccc(Cl)cc2)n2cc[n+](CC(OCc3ccc(Cl)cc3Cl)c3ccc(Cl)cc3Cl)c2)cc1` (stereo not shown) [ZA]: the figures for the IC50 at GlyT-1c (setting [3]) and on GlyT-2 (setting [4]) were 0.912 µM and 3.09 µM, respectively. In addition, on GlyT-1c, the “selectivity GlyT-1c relative to GlyT-2” value is “selective for GlyT-1c relative to GlyT-2”.
`CC(Cc1ccccc1)NCCC(c1ccccc1)c1ccccc1` (stereo not shown) [ZC]: on GlyT-1c, the IC50 is 6.46 µM and the “selectivity GlyT-1c relative to GlyT-2” value was “selective for GlyT-1c relative to GlyT-2”. Moreover, on GlyT-2, the IC50 was 14.1 µM.
Take `CSc1ccc2c(c1)N(CCC1CCCCN1C)c1ccccc1S2` (stereo not shown) [ZD]: on GlyT-1c (setting [3]), the IC50 is 9.55 µM.
On to `CN1CCC(=C2c3ccccc3CCc3ccccc32)CC1` [ZF], for which the figures for the IC50 at GlyT-1c (setting [3]) and at GlyT-2 (setting [4]) were 21.4 µM and 14.5 µM, respectively. For the same compound, on GlyT-1c, the “selectivity GlyT-1c relative to GlyT-2” value is “reverse selectivity”.
For the compound `CC(C)(C)c1ccc(C(O)CCCN2CCC(C(O)(c3ccccc3)c3ccccc3)CC2)cc1` (stereo not shown) [ZB], at GlyT-1c, the IC50 is 4.27 µM and the “selectivity GlyT-1c relative to GlyT-2” value is reported as “selective for GlyT-1c relative to GlyT-2”. Also, on GlyT-2, the IC50 was 17 µM.
With `O=C(Nc1ccccc1)N[C@@H]1C[C@@H](C(=O)O)Nc2cc(Cl)cc(Cl)c21` (relative stereo) [L-689,560], the IC50 in assay [1] was roughly 0.5 µM. In the assay with NMDA receptor, the “blockade of NMDA-caused accumulation of 45Ca++” value is reported as “blocked”.
`NCC(=O)O` [glycine]: the EC50 in assay [2] is roughly 1 µM.
On to `CC(NCCC(c1ccccc1)c1ccccc1)c1ccccc1` (stereo not shown) [ZE], for which, on GlyT-1c, the IC50 was 12.9 µM and the “selectivity GlyT-1c relative to GlyT-2” value is “selective for GlyT-1c relative to GlyT-2”. This compound gave an IC50 against GlyT-2 of 20.9 µM.
